Assay results: patent US20110152246A1, “NOVEL INHIBITORS OF HEPATITIS C VIRUS REPLICATION” (InterMune, Inc., priority 2009, published 2011)

What follows are molecules tested on Huh7 cells containing HCV replicons with an integrated luciferase reporter gene (assay: HCV Replicon Assay (luciferase reporter)). Settings: Hepatitis C virus, Huh-7, 48 h, read-out: EC50 nM.
Type: cell-based
Experimental: Huh7 cells containing HCV replicons with an integrated luciferase reporter gene are maintained at 37° C. in 5% CO2 in Dulbecco's modified Eagle's medium (DMEM; Mediatech, Herndon, Va.) containing 10% heat-inactivated fetal bovine serum (FBS; Mediatech, Herndon, Va.), 2 mM L-glutamine (Cambrex Bioscience, Walkersville, Md.), 1% non essential amino acids (Lonza, Walkersville, Md.), 50 IU/mL penicillin (Mediatech, Herndon, Va.), […] streptomycin (Mediatech, Herndon, Va.) and 0.5 mg/mL G418 (Promega, Madison, Wis.). Cells are sub-divided 1:3 or 4 every 2-3 days.
24 h prior to the assay, Huh7 cells containing sub-genomic HCV replicons are collected, counted, and plated in Nunclon 96-well tissue culture plates (ThermoFisher, Rochester, N.Y.) at 5000 cells/well in […] standard maintenance medium (above) and incubated in the conditions above. To initiate the assay, culture medium is removed, and replaced with […] maintenance media lacking G418. Test compounds are serially diluted three-fold in dimethyl sulfoxide (DMSO) in two duplicate rows for each EC50 determination. These compound solutions are diluted ten-fold in DMEM lacking serum and G418. […] of these compound solutions in media are added to duplicate tissue culture plates. The final volume is 100 μL with a DMSO concentration of 1%. Compound concentrations are adjusted to appropriately define a dose response curve. Typical dilution series range from […] to 1.69 nM final concentrations to 1 nM to 16.9 fM final. Plates are incubated at 37° C. for approximately 48 hr.
Following incubation, media is removed from one of the two duplicate plates and replicon-reporter luciferase activity is measured using a Bright-Glo luciferase assay kit (Promega, Madison, Wis.) according to manufacturer's instructions. Semi-log plots of luciferase activity versus the logarithm of compound concentration are fit to a 4-parameter logistic function using XLfit software (IDBS Inc., Guildford, UK) to determine EC50.

Compound	EC50
COC(=O)N[C@H](C(=O)N1CCC[C@H]1C(=O)Nc1ccc(NC(=O)c2ccc(NC(=O)[C@@H]3CCCN3C(=O)[C@@H](NC(=O)OC)C(C)C)cc2)cc1)C(C)C [Compound 102]	10 to 100 nM
O=C(Nc1ccc(-c2ccc3nc(NC(=O)[C@@H]4CCCN4C(=O)Cc4ccccc4)ccc3c2)cn1)[C@@H]1CCCN1C(=O)Cc1ccccc1 [Compound 216]	< 10 nM

Same assay, conditions: Hepatitis C virus, Huh-7; Huh7 HCV replicon cells, luciferase activity, approximately 48 hr incubation; read-out: EC50

Compound	EC50
COC(=O)N[C@H](C(=O)N1CCC[C@H]1c1ncc(-c2ccc(-c3ccc(-c4cnc([C@@H]5CCCN5C(=O)[C@@H](NC(=O)OC)C(C)C)[nH]4)c4c3OCCO4)cc2)[nH]1)C(C)C [Compound 309]	< 10 nM
O=C(Nc1ccc(NC(=O)[C@@H]2CCCN2C(=O)Cc2ccccc2)cc1)c1ccc(NC(=O)[C@@H]2CCCN2C(=O)Cc2ccccc2)cc1 [Compound 101]	10 to 100 nM
COC(=O)N[C@H](C(=O)N1CCC[C@H]1c1nc(-c2ccc(-c3ccc(-c4c[nH]c([C@@H]5CCCN5C(=O)Cc5ccccc5)n4)cc3)c3ccccc23)c[nH]1)C(C)C [Compound 308]	< 10 nM
COC(=O)N[C@H](C(=O)N1CCC[C@H]1C(=O)OCC(=O)c1ccc(-c2ccc(C(=O)COC(=O)[C@@H]3CCCN3C(=O)[C@@H](NC(=O)OC)C(C)C)c3c2CCC3)cc1)C(C)C [Compound 305]	> 100 nM
CC(C)[C@H](Nc1ncccn1)C(=O)N1CCC[C@H]1c1nc(-c2ccc3cc(-c4ccc5[nH]c([C@@H]6CCCN6C(=O)[C@@H](Nc6ncccn6)C(C)C)nc5c4)ccc3c2)c[nH]1 [Compound 420]	< 10 nM
COC(=O)N[C@H](C(=O)N1CCOC[C@H]1c1nc(-c2ccc3cc(-c4ccc5[nH]c([C@@H]6COCCN6C(=O)[C@@H](NC(=O)OC)C(C)C)nc5c4)ccc3c2)c[nH]1)C(C)C [Compound 419]	< 10 nM
COC(=O)N[C@H](C(=O)N1CCC[C@H]1C(=O)Nc1ccc2cc(-c3ccc(NC(=O)[C@@H]4CCCN4C(=O)Cc4ccccc4)cc3)ccc2c1)C(C)C [Compound 203]	< 10 nM
COC(=O)N[C@H](C(=O)N1CCC[C@H]1c1nc(-c2ccc(-c3ccc(-c4c[nH]c([C@@H]5CCCN5C(=O)[C@@H](NC(=O)OC)C(C)C)n4)c4sccc34)cc2)c[nH]1)C(C)C [Compound 311]	< 10 nM
COC(=O)N[C@H](C(=O)N1CCC[C@H]1C(=O)Nc1ccc2cc(-c3cnc(NC(=O)[C@@H]4CCCN4C(=O)[C@@H](NC(=O)OC)C(C)C)nc3)ccc2c1)C(C)C [Compound 221]	< 10 nM
O=C(Nc1ccc2cc(NC(=O)[C@@H]3CCCN3C(=O)Cc3ccccc3)ccc2c1)[C@@H]1CCCN1C(=O)Cc1ccccc1 [Compound 210]	> 100 nM
COC(=O)N[C@H](C(=O)N1CCC[C@H]1c1nc(-c2ccc(-c3ccc(-c4c[nH]c([C@@H]5CCCN5C(=O)[C@@H](NC(=O)OC)C(C)C)n4)c4cccnc34)cc2)c[nH]1)C(C)C [Compound 314]	< 10 nM
COC(=O)N[C@H](C(=O)N1CCC[C@H]1C(=O)OCC(=O)c1ccc(-c2ccc(C(=O)COC(=O)[C@@H]3CCCN3C(=O)[C@@H](NC(=O)OC)C(C)C)c3c2CCCC3)cc1)C(C)C [Compound 303]	10 to 100 nM
